The record followed here is PubChem BioAssay AID2305 (GlaxoSmithKline (GSK), 2010).

Structures are written as SMILES.

This assay concerns P. falciparum 3D7 growth, pLDH absorbance. Kind of assay: P. falciparum 3D7 growth inhibition, dose response, strain 3D7 (AID 2305).

What is called IC50 is the midpoint of a concentration-inhibition curve. `O=C(Cc1cnc[nH]1)Nc1ccc(-c2cccc(-c3nc4ccc(C(F)(F)F)cc4[nH]3)c2)cc1`: the 50% inhibitory concentration (IC50) stood at 740 nM. In the case of `Cc1cccc(-c2nn(-c3ccccc3)c3[nH]c(=O)c(CN4CCSCC4)cc23)c1` it was 1010 nM; in that of `COc1ccc(N2CCN(CCCCNC(=O)c3ccc(NC(=O)c4cccc(Cl)c4)cc3)CC2)c(OC)c1`, 910 nM. In the case of `O=C(Nc1ccc2c(c1)CCN(C1CCC1)CC2)c1cn(-c2ccccc2)nc1-c1ccccc1` it was 810 nM. In the case of `CCCCc1cc(O)c2c(c1)OC(C)(C)C=C2C1=CCN(Cc2ccccc2)CC1` it was 250 nM. In turn, `COc1ccc2ncc(F)c(CCN3CCC4(CC3)COC(c3cc5c(cn3)OCCO5)=N4)c2n1` had an IC50 of 220 nM. The value for `Cn1nc(-c2ccccc2F)c2cc(C(=O)Nc3cccnc3)sc21` was 810 nM; that for `CCC1CN2CCc3c([nH]c4ccccc34)C2CC1CC1=NCCc2c1[nH]c1ccccc21` (stereo not drawn) was 740 nM.

Regarding `Cc1cc(NCCC(=O)NCCOc2ccccc2)nc(NCCc2ccc(F)cc2)n1`, the IC50 worked out at 940 nM. In turn, `CC(C)Oc1ccc(N2CCN(CCCCNC(=O)c3ccc(NC(=O)c4ccc(Cl)cc4)cc3)CC2)c(OC(C)C)c1` displayed an IC50 of 510 nM.

Regarding `C=Cc1ccccc1C1(O)CCN(CCCCNC(=O)c2ccc(-c3ccc(C#N)cc3)cc2)CC1`, the IC50 was determined as 520 nM. Consider `CCN(CCCN1CCCC1)c1cc(C)nc(Nc2ccc(Cl)cc2)n1`, for which the IC50 turned out to be 340 nM. The value for `COc1ccc(CCCc2nc(N)nc(N)c2-c2ccc(Cl)cc2)cc1` was 40 nM. For `Cc1cccc(Cn2nc(-c3ccccc3)c(N3CCCCC3)cc2=O)c1`, the half-maximal inhibitory concentration (IC50) came out at 460 nM.

For the compound `CC1=CC(=O)[C@@H](O)[C@]2(C)[C@H]3[C@@]4(O)OC[C@@]35[C@@H](C[C@@H]12)OC(=O)C[C@H]5[C@@H](C)[C@H]4O`, the half-inhibitory concentration (IC50) was 350 nM. As to `CCn1c(-c2nonc2N)nc2c(-c3cccc(Cl)c3)ncc(OCCCNCc3cnc(C)nc3N)c21`, the IC50 worked out at 1010 nM. With `N=C(N)c1ccc(C=CC(=O)NCC(O)CNC(=O)C=Cc2ccc(C(=N)N)cc2)cc1` (stereo not drawn), the IC50 worked out at 30 nM. The value for `Cc1ccc2[nH]cc(/C=C/C(=O)NC3CCC(CCN4CCc5ccc(C#N)cc5CC4)CC3)c2c1` (stereo not drawn) was 920 nM; that for `COc1ccc2nccc([C@@H](O)CN3CCC(NCc4cc5ccccc5o4)CC3)c2c1` was 660 nM; that for `CN(C)S(=O)(=O)c1ccc(C(=O)N(c2nc(-c3ccccc3)cs2)C2CCCCC2)cc1` was 760 nM. The value for `COc1cc(CNC[C@@H](O)[C@H](Cc2ccccc2)NC(=O)c2cc(C3CCCC3)cc(N3CCCCS3(=O)=O)c2)cc(OC)c1` was 700 nM; that for `CC(C)N(C)C(=O)n1cnc(S(=O)(=O)C2C[C@@H]3CC[C@H]2C3)n1` (stereo partly drawn) was 60 nM; that for `COc1ccc2c(NN=Cc3ccc(F)cc3)cc(C)nc2c1` was 770 nM. Consider `CCOC(C(=O)OCC1CCCN(C)C1)(c1ccccc1)c1ccccc1` (stereo not drawn), for which the IC50 came out at 870 nM.

In the case of `Cc1ccc(C(=O)Nc2ccc(Cl)c(N3CCN(CCc4ccccc4)CC3)c2)cc1`, the IC50 was found to be 930 nM. In the case of `O=c1cc(NCCCN(Cc2cc3c(Cl)cc(Cl)cc3[nH]2)Cc2cc3c(Cl)cc(Cl)cc3[nH]2)[nH]c2ccccc12` it was 120 nM. The value for `Cc1cccc2[nH]c(-c3ccc(-c4ccc(NC(=O)NCc5cccc(F)c5)cc4)cc3)nc12` was 1300 nM; that for `COc1ccc(Nc2ncc3c(-c4cccc(NC(=O)Cc5cccc(F)c5)c4)c[nH]c3n2)cc1OC` was 570 nM. The value for `COc1cc(Nc2nccc(N3CCC(NC(=O)c4cccc(C#N)c4)C3)n2)cc(OC)c1OC` (stereo not drawn) was 990 nM; that for `CNS(=O)(=O)c1ccc(NC(=O)c2cc(-c3cccnc3)nc3ccc(Br)cc23)cc1` was 910 nM; that for `O=C(Nc1cccc(-c2nn3ncccc3c2-c2ccnc(Nc3ccc(N4CCOCC4)cc3)n2)c1)c1c(F)cccc1F` was 160 nM. Consider `CN(C)Cc1ccc(-c2ccc3ccnc(N)c3c2)cc1`, for which the IC50 was 380 nM. In the case of `CC(=O)Nc1ccc(OCCCCN(Cc2ccccc2C(F)(F)F)c2ccc(C(F)(F)F)c(C#N)c2)c(Cl)c1` it was 550 nM; in that of `CC(C)NCC(=O)Nc1cccc(C(=O)Nc2cccc(C(F)(F)F)c2)c1`, 270 nM; in that of `CCn1c(-c2nonc2N)nc2c(-c3cccc(NC(=O)Nc4ccccc4Cl)c3)ncc(OCCCN)c21`, 670 nM. In the case of `COc1cc2cc(Cc3cnc(N)nc3N)ccc2c(OC)c1OC` it was 240 nM; in that of `Cc1cccc2[nH]c(-c3ccc(-c4ccc(CNCc5cnn(-c6ccccc6)n5)cc4)s3)nc12`, 720 nM; in that of `N#Cc1cccc(NC(=O)Nc2ccc(-c3csc(-c4nc5ccccc5[nH]4)c3)cc2)c1`, 150 nM. In turn, `CCCN(CCC)CCCNc1ccc(C(=O)Nc2ccc(OCC)cc2)cc1[N+](=O)[O-]` yielded an IC50 of 990 nM. `CN1CCCN(c2ccnc3cc4c(cc23)N(C(=O)c2ccc(Cl)cc2Cl)CC4)CC1`: the IC50 worked out at 810 nM. In the case of `Cc1cc2c(cc1C(F)(F)F)N(C(=O)Nc1ccc(C(=O)NCCN3CCCC3)cc1)CC2` it was 320 nM; in that of `CCCCCCCCN1CCCN(C(=O)c2cccc(NC(=O)Nc3ccc4ccccc4c3)c2)CC1`, 760 nM.

The compound `CCCCCc1cnc2nc(N)nc(N)c2c1` showed an IC50 of 1230 nM.
